Source: US11325899B2, “Benzofurane and benzothiophene derivatives as PGE2 receptor modulators” (IDORSIA PHARMACEUTICALS LTD, priority 2017, dated 2022)

How the values were obtained:
Format in all cases: cell-based
EP4 receptor = molecular target: T1, EP4 receptor (Homo sapiens, UniProt P35408); assay: hEP4 cAMP assay (BT549 breast cancer cells, HTRF cAMP, PGE2 stimulation); conditions: antagonistic activity, PGE2 6 nM (EC80)
T1 construct: BT549 breast cancer cells, express high endogenous EP4 levels and very low EP2 levels; host or cells: BT549 breast cancer cells
Method: (§1) The antagonistic activities of the compounds of formula (I) on the EP2 and EP4 receptors are also determined in accordance with the following experimental method.
(§2) Human tumor cell lines expressing endogenously either EP4 or EP2 are used and cAMP accumulation in cells upon PGE2 stimulation is monitored. SF295 glioblastoma cells express high endogenous EP2 and no EP4, whereas BT549 breast cancer cells, express high endogenous EP4 levels and very low EP2 levels.
(§3) As a detection method for cAMP the HTRF (homogeneous time resolved fluorescence) Cisbio kit (HTRF cAMP dynamic 2 kit 20′000 tests Cisbio Cat. #62AM4PEC) was used, which is based on a competitive immunoassay using a Cryptate-labeled anti-cAMP antibody and d2-labeled cAMP. Native cAMP produced by cells or unlabeled cAMP (for the standard curve) compete with exogenously added d2-labeled cAMP (acceptor) for binding to monoclonal anti-cAMP-Eu3+ Cryptate (donor). A FRET signal (Fluorescence Resonance Energy Transfer) is obtained only if the labeled anti-cAMP antibody binds the d2 labelled cAMP, thus the specific signal (i.e. energy transfer) is inversely proportional to the concentration of cAMP in the standard or sample.
(§4) The BT549 cells (NCI/No. 0507282) are detached from culture dishes with a cell dissociation buffer (Invitrogen, 13151-014), and collected in growing medium (GM: RPMI1640 (Invitrogen 21875)/10% FCS, 1% Penicilin/streptomycin). Cells are counted washed and resuspended in assay buffer (AB; HBSS, 20 mM HEPES, 0.2% BSA; 2 mM IBMX). 4′000 cells in 5 μl of AB are seeded per well of a small volume 384 well plate (black with flat bottom, Greiner 784076).
Stock solutions of test compounds are made at a concentration of 10 mM in DMSO, and serially diluted in DMSO to concentrations required for inhibition dose response curves (tested concentration range 30 μM-0.4 nM; 30 μM-0.015 nM or 1 uM-0.01 nM).
PGE2 (Cayman 14010, stock solution: 6 μM in DMSO) is used as agonist at 6 nM final concentration, corresponding to EC80.
(§5) Two point five microliters of diluted compounds are transferred into the assay plate. Plate is pre-incubated 45 minutes at room temperature. Subsequently, 2.5 microliters of PGE2 (final conc. 6 nM) are transferred into the assay plate. Plate is incubated 30 minutes at room temperature. Five μl of each donor (anti-cAMP cryptate) and acceptor (cAMP-d2) are added and the plate is incubated another hour at room temperature in the dark and then read using a BMG LABTECH PHERAstar reader (Excitation:337 nm, Emission:620 and 665 nm).
(§6) The obtained Delta F(fluorescence) values (665 nm/620 nM) are converted into % cAMP values using the measurements of the cAMP calibrator provided in the kit. For each compound concentration the percentage of cAMP compared to DMSO control value as average±STDEV (each concentration is measured in duplicate) is calculated.
(§7) IC50 values and curves are generated with XLfit software (IDBS) using Dose-Response One Site model 203. When compounds were measured multiple times, mean values are given.

PTGER2 (EP2) = molecular target: T2, PTGER2 (EP2) (Homo sapiens, UniProt P43116); assay: hEP2 b-arrestin assay (PathHunter HEK 293 PTGER2 b-arrestin cells); conditions: antagonistic activity, beta-arrestin assay; read-out: hEP2 b-arr IC50
T2 construct: host or cells: HEK 293 (PathHunter PTGER2 b-arrestin cell line)
Method: (§8) The antagonistic activities of the compounds of formula (I) on the EP2 and EP4 receptors are determined in accordance with the following experimental method.
(§9) The assay is using the PathHunter™ HEK 293 PTGER2 and PTGER4 b-arrestin cell lines from DiscoverX. The system is based on the Enzyme Fragment Complementation Technology. Two complementing fragments of the b-galactosidase enzyme are expressed within stably transfected cells. The larger portion of b-gal, termed EA for Enzyme Acceptor, is fused to the C-terminus of b-arrestin 2. The smaller fragment, termed ProLink™ tag, is fused to PTGER2 (EP2) or PTRGER4 (EP4) at the C-terminus. Upon activation, b-arrestin is recruited which forces the interaction of ProLink and EA, allowing complementation of the two fragments of b-gal and the formation of a functional enzyme which is capable of hydrolysing the substrate and generating a chemiluminescent signal.
(§10) The HEK 293 PTGER2 b-arrestin cells (DiscoverX 93-021-4C1) are detached from culture dishes with a cell dissociation buffer (Invitrogen, 13151-014), and collected in growing medium (GM: DMEM+Glutamax-I (Invitrogen 32430)/10% FCS, 1% Penicilin/streptomycin). 5000 cells per well of a 384 well plate (white with white bottom Greiner 781080) are seeded in 20 ul per well of GM. Plate is incubated at 37° C., 5% C02 for 24 hours.
(§11) Stock solutions of test compounds are made at a concentration of 10 mM in DMSO, and serially diluted in DMSO to concentrations required for inhibition dose response curves (tested concentration range 10 μM-2 nM or 1 μM-0.2 nM).
PGE2 (Cayman 14010, stock solution: 10 mM in DMSO) is used as agonist at 5 μM final concentration, corresponding to EC80.
Five microliters of diluted compounds are transferred into the assay plate. Plate is pre-incubated 15 minutes at 37° C. Then five microliters of PGE2 (final conc. 5 μM) are transferred into the assay plate. Plate is incubated 120 minutes at 37° C.
(§12) PathHunter Glo Detection Kit components are thawed and mix according to manufacturer's instructions: 1 part Galacton Star Substrate with 5 parts Emerald II™ Solution, and 19 parts of PathHunter Cell Assay Buffer, respectively. Twelve μl of reagent are transferred to the assay plate and incubate for 1 hour at room temperature in the dark. Luminescence counts are read on a BMG Fluostar Optima reader according to manufacturer's instructions.
(§13) For each compound concentration calculate of the percentage of activity compared to DMSO control value as average±STDEV. (each concentration is measured in duplicate)
as §7

PTGER4 (EP4) = molecular target: T3, PTGER4 (EP4) (Homo sapiens, UniProt P35408); assay: hEP4 b-arrestin assay (PathHunter HEK 293 PTGER4 b-arrestin cells); conditions: antagonistic activity, beta-arrestin assay; read-out: hEP4 b-arr IC50
T3 construct: host or cells: HEK 293 (PathHunter PTGER4 b-arrestin cell line)
Method: as §8, §9
as §10, with “PTGER4” for “PTGER2”, “93-030-4C1)” for “93-021-4C1)”
as §11
PGE2 (Cayman 14010, stock solution: 100 uM in DMSO) is used as agonist at 20 nM final concentration, corresponding to EC80.
Five microliters of diluted compounds are transferred into the assay plate. Plate is pre-incubated 15 minutes at 37° C. Then five microliters of PGE2 (final conc. 20 nM) are transferred into the assay plate. Plate is incubated 120 minutes at 37° C.
as §12, §13, §7

EP2 receptor = molecular target: T4, EP2 receptor (Homo sapiens, UniProt P43116); assay: hEP2 cAMP assay (SF295 glioblastoma cells, HTRF cAMP, PGE2 stimulation); conditions: antagonistic activity
T4 construct: SF295 glioblastoma cells express high endogenous EP2 and no EP4; host or cells: SF295 glioblastoma cells
Method: as §1, §2, §3
as §4, with “SF295” for “BT549”, “0503170)” for “0507282)”, “RPM1640” for “RPMI1640”
Stock solutions of test compounds are made at a concentration of 10 mM in DMSO, and serially diluted in DMSO to concentrations required for inhibition dose response curves (tested concentration range 30 μM-0.4 nM; 30 μM-0.015 nM or 1 μM-0.01 nM).
PGE2 (Cayman 14010, stock solution: 75 μM in DMSO) is used as agonist at 75 nM final concentration, corresponding to EC80.
as §5, with “conc. 75” for “conc. 6”, “reader (Excitation: 337” for “reader (Excitation:337”, “nm, Emission: 620” for “nm, Emission:620”
as §6, with “F (fluorescence)” for “F(fluorescence)”
as §7

T3 sequence (P35408 whole entry): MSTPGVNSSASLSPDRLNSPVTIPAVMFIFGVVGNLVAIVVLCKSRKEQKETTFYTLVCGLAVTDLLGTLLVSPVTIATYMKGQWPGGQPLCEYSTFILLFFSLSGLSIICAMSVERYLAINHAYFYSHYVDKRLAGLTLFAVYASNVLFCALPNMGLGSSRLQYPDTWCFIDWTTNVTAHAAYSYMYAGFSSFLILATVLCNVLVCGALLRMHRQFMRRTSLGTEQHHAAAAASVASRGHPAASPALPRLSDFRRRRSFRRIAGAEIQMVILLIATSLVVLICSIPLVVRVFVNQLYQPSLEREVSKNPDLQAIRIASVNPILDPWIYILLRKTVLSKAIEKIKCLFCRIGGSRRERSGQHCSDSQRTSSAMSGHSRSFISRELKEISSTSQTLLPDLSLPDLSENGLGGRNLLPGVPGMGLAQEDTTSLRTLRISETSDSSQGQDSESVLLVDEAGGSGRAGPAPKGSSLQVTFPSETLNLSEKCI
T1 sequence (P35408 whole entry): as above
T4 sequence (P43116 whole entry): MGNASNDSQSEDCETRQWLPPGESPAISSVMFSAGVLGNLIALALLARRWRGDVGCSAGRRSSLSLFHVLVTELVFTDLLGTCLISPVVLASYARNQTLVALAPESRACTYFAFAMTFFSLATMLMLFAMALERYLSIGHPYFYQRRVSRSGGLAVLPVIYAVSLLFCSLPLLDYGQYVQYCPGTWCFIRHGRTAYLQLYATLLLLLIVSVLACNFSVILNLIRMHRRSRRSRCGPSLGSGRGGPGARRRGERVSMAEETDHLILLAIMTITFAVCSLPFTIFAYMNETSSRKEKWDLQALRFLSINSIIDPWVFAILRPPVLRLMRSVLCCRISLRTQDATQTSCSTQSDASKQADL
T2 sequence (P43116 whole entry): as above

SMILES	IC50 (EP4 receptor) [nM]	IC50 (PTGER2 (EP2)) [nM]	IC50 (PTGER4 (EP4)) [nM]	IC50 (EP2 receptor) [nM]
COc1cc(Cl)cc2c(CCNc3cc(-c4cc(C)c(C(=O)O)s4)ncn3)c(C)oc12 [Example 1, 5-{6-[2-(5-Chloro-7-methoxy-2-methyl-benzofuran-3-yl)-ethylamino]-pyrimidin-4-yl}-3-methyl-thiophene-2-carboxylic acid]	22	59	142	
Cc1sc2c(Cl)ccc(Cl)c2c1CCNc1cc(-c2ccc(C(=O)O)c(O)c2)ncn1 [Example 11, 4-{6-[2-(4,7-Dichloro-2-methyl-benzo[b]thiophen-3-yl)-ethylamino]-pyrimidin-4-yl}-2-hydroxy-benzoic acid]		99	3090	71
CCOc1cc(-c2cc(NCCc3c(C#N)sc4c(C)cc(F)cc34)ncn2)sc1C(=O)O [Example 26, 5-{6-[2-(2-Cyano-5-fluoro-7-methyl-benzo[b]thiophen-3-yl)-ethylamino]-pyrimidin-4-yl}-3-ethoxy-thiophene-2-carboxylic acid]	2			1
Cc1sc2c(C)cc(F)cc2c1CCNc1cc(-c2cc(OCCO)c(C(=O)O)s2)ncn1 [Example 41, 5-{6-[2-(5-Fluoro-2,7-dimethyl-benzo[b]thiophen-3-yl)-ethylamino]-pyrimidin-4-yl}-3-(2-hydroxy-ethoxy)-thiophene-2-carboxylic acid]	42			13
CCOc1cc(-c2cc(NCCc3c(C)oc4ccccc34)ncn2)ccc1C(=O)O [Example 73, 2-Ethoxy-4-{6-[2-(2-methyl-benzofuran-3-yl)-ethylamino]-pyrimidin-4-yl}-benzoic acid]		5	3500	4
COc1cc(-c2cc(NCCc3c(C)sc4c(C)ccc(F)c34)ncn2)cc(C)c1C(=O)O [Example 74, 4-{6-[2-(4-Fluoro-2,7-dimethyl-benzo[b]thiophen-3-yl)-ethylamino]-pyrimidin-4-yl}-2-methoxy-6-methyl-benzoic acid]	644			273
CCOc1cc(-c2cc(NCCc3csc4ccccc34)ncn2)ccc1OCC(=O)O [Example 125, {4-[6-(2-Benzo[b]thiophen-3-yl-ethylamino)-pyrimidin-4-yl]-2-ethoxy-phenoxy}-acetic acid]	426			359

Continued, values first:

IC50 (EP4 receptor) [nM]	IC50 (PTGER2 (EP2)) [nM]	IC50 (PTGER4 (EP4)) [nM]	IC50 (EP2 receptor) [nM]	SMILES
	5	3380	2	CSc1cc(-c2cc(NCCc3c(C)sc4ccccc34)ncn2)cc(F)c1C(=O)O [Example 48, 2-Fluoro-4-{6-[2-(2-methyl-benzo[b]thiophen-3-yl)-ethylamino]-pyrimidin-4-yl}-6-methylsulfanyl-benzoic acid]
	2	3620	1	CSc1cc(-c2cc(NCCc3c(C)oc4ccccc34)ncn2)cc(F)c1C(=O)O [Example 49, 2-Fluoro-4-{6-[2-(2-methyl-benzofuran-3-yl)-ethylamino]-pyrimidin-4-yl}-6-methylsulfanyl-benzoic acid]
	10	3490	1	CSc1cc(-c2cc(NCCc3c(C)oc4ccccc34)ncn2)cc(Cl)c1C(=O)O [Example 51, 2-Chloro-4-{6-[2-(2-methyl-benzofuran-3-yl)-ethylamino]-pyrimidin-4-yl}-6-methylsulfanyl-benzoic acid]
87			7	Cc1sc2c(C)cccc2c1CCNc1cc(-c2ccc3oc(C(=O)O)cc3c2)ncn1 [Example 78, 5-{6-[2-(2,7-Dimethyl-benzo[b]thiophen-3-yl)-ethylamino]-pyrimidin-4-yl}-benzofuran-2-carboxylic acid]
82			37	CCOc1cc(-c2cc(NCCc3c(C)sc4c(C)cc(F)cc34)ncn2)ccc1NCC(=O)O [Example 128, (2-Ethoxy-4-{6-[2-(5-fluoro-2,7-dimethyl-benzo[b]thiophen-3-yl)-ethylamino]-pyrimidin-4-yl}-phenylamino)-acetic acid]
